Data taken from patent US11965039B2, “Compstatin analogues and their medical uses” (priority 2018, dated 2024).
pIC50: −log10 of the molar value. Positions of bridges follow the written chain, without caps; N, C: chain ends. Non-standard residues stand in square brackets, D forms with d. Residues, ends and D or L forms follow the SMILES beside them. Trp(1-Me) = Cn1cc(C[C@H](N)C(=O)O)c2ccccc21; NMeI = CC[C@H](C)[C@H](NC)C(=O)O; Sar = CNCC(=O)O

System: classical complement pathway
Experiment: In vitro haemolysis assay (inhibition of classical complement pathway)
Type: cell-based, human
Conditions: Table 5, different residues at position 3 of Ac-IC(1)XWQDWGEHRC(1)T-NH2; read-out: IC50, CP hemolysis
Method: The in vitro effect of the compounds of the present invention was assessed by measuring their inhibitory effect of the classical complement pathway in a haemolysis assay. Briefly, compounds of the present invention and reference compounds were dissolved in DMSO and diluted in Tris/Casein Assay Buffer (10 mM Tris, 145 mM NaCl, 0.5 mM MgCl2, 0.15 mM CaCl2), and 0.1% W/V Casein, adjusted to pH 7.4) as 9-point serial dilutions in a 96 well plate. Sensitized sheep red blood cells (RBC) coated with rabbit anti-sheep erythrocyte antiserum (Complement Technology, Inc., TX, USA) were washed in Tris/Casein Assay Buffer. […] from each well of diluted compound was added to a 96-well plate containing 50 μL diluted human serum (Complement Technology, Inc., TX, USA) and incubated for 15 minutes at room temperature. The serum dilution factor was optimized for every serum batch to obtain 70-90% of maximal haemolysis using the protocol. Then 50 μL sensitized sheep red blood cells were added to all wells (10^7 per well). After 30 minutes of incubation at 37 QC with gentle agitation, the reaction was stopped by addition of 50 μL Tris STOP Buffer per well (10 mM EDTA, 10 mM Tris, 145 mM NaCl adjusted to pH 7.4). The RBCs were then removed by centrifugation and the resulting supernatant measured for hemolysis by absorbance at 405 nm. The response was normalized relative to a positive and negative control (vehicle) to calculate the IC50 from the concentration response curve using the 4-parameter logistic (4PL) nonlinear model for curve fitting.

SMILES | pIC50
CC[C@H](C)[C@H](NC(C)=O)C(=O)N[C@H]1CSSC[C@@H](C(=O)N[C@H](C(N)=O)[C@@H](C)O)NC(=O)[C@H](CCCNC(=N)N)NC(=O)[C@H](Cc2c[nH]cn2)NC(=O)[C@H](CCC(=O)O)NC(=O)CNC(=O)[C@H](Cc2c[nH]c3ccccc23)NC(=O)[C@H](CC(=O)O)NC(=O)[C@H](CCC(N)=O)NC(=O)[C@H](Cc2c[nH]c3ccccc23)NC(=O)[C@H](C(C)C)NC1=O [A, reference compound] (Ac-ICVWQDWGEHRCT-NH2; disulfide 2-12) | 6.46

Same assay, conditions: human serum, sensitized sheep red blood cells; Table 2; read-out: CP hemolysis IC50

SMILES | pIC50
CC[C@H](C)[C@H](NC(C)=O)C(=O)N[C@H]1CSSC[C@@H](C(=O)N[C@H](C(N)=O)[C@@H](C)O)NC(=O)[C@H](CCCNC(=N)N)NC(=O)[C@H](Cc2c[nH]cn2)NC(=O)[C@H](C)NC(=O)CNC(=O)[C@H](Cc2c[nH]c3ccccc23)NC(=O)[C@H](CC(=O)O)NC(=O)[C@H](CCC(N)=O)NC(=O)[C@H](Cc2c[nH]c3ccccc23)NC(=O)[C@H](C(C)C)NC1=O [Compound 4W9A, reference compound] | 6.60

Same assay, conditions: human serum, sensitized sheep red blood cells; Table 3, cells printed in μM; read-out: IC50, inhibition of hemolysis

SMILES | IC50
CC[C@H](C)[C@H](N)C(=O)N[C@H]1CSSC[C@@H](C(=O)N[C@H](C(N)=O)[C@@H](C)O)NC(=O)[C@H](CCCN=C(N)N)NC(=O)[C@H](Cc2cnc[nH]2)NC(=O)[C@H](Cc2cnc[nH]2)NC(=O)CNC(=O)[C@H](Cc2c[nH]c3ccccc23)NC(=O)[C@H](CC(=O)O)NC(=O)[C@H](CCC(N)=O)NC(=O)[C@H](C(C)C)NC(=O)[C@H](C(C)C)NC1=O [Compstatin] | > 5 µM

Same assay, conditions: human serum, sensitized sheep red blood cells; Table 3, given as upper bounds; read-out: IC50, inhibition of hemolysis

SMILES | pIC50
CC[C@H](C)[C@H](NC(=O)[C@H](N)Cc1ccc(O)cc1)C(=O)N[C@H]1CSSC[C@@H](C(=O)N(C)[C@H](C(N)=O)[C@@H](C)CC)NC(=O)[C@H](CCCNC(=N)N)NC(=O)[C@H](Cc2c[nH]cn2)NC(=O)[C@H](C)NC(=O)CN(C)C(=O)[C@H](Cc2c[nH]c3ccccc23)NC(=O)[C@H](CC(=O)O)NC(=O)[C@H](CCC(N)=O)NC(=O)[C@H](Cc2cn(C)c3ccccc23)NC(=O)[C@H]([C@@H](C)CC)NC1=O [Compound 48, H-{d}YIC(1)I[1-Me-Trp]QDW[Sar]AHRC(1)[N-Me-Ile]-NH2] (H-[dY]ICI[Trp(1-Me)]QDW[Sar]AHRC[NMeI]-NH2; disulfide 3-13) | > 7.00
CC[C@H](C)[C@@H]1NC(=O)[C@@H](NC(=O)[C@H](Cc2ccc(O)cc2)NC(C)=O)CSSC[C@@H](C(=O)N[C@H](C(=O)N[C@@H](CCC(=O)O)C(=O)N[C@@H](CO)C(=O)NCC(=O)N[C@@H](C)C(N)=O)[C@@H](C)O)NC(=O)[C@H](CCCNC(=N)N)NC(=O)[C@H](Cc2c[nH]cn2)NC(=O)[C@H](CCC(=O)O)NC(=O)CNC(=O)[C@H](Cc2c[nH]c3ccccc23)NC(=O)[C@H](CC(=O)O)NC(=O)[C@H](CCC(N)=O)NC(=O)[C@H](Cc2cn(C)c3ccccc23)NC1=O [Compound 69] (Ac-YCI[Trp(1-Me)]QDWGEHRCTESGA-NH2; disulfide 2-12) | > 7.00
CC[C@H](C)[C@@H]1NC(=O)[C@@H](NC(=O)[C@H](Cc2ccc(O)cc2)NC(=O)[C@H](CCC(=O)O)NC(=O)[C@H](CO)NC(C)=O)CSSC[C@@H](C(=O)N(C)CC(=O)N[C@@H](CCC(=O)O)C(=O)N[C@@H](C)C(N)=O)NC(=O)[C@H](CCCNC(=N)N)NC(=O)[C@H](Cc2c[nH]cn2)NC(=O)[C@H](CCC(=O)O)NC(=O)CNC(=O)[C@H](Cc2c[nH]c3ccccc23)NC(=O)[C@H](CC(=O)O)NC(=O)[C@H](CCC(N)=O)NC(=O)[C@H](Cc2cn(C)c3ccccc23)NC1=O [Compound 71] (Ac-SEYCI[Trp(1-Me)]QDWGEHRC[Sar]EA-NH2; disulfide 4-14) | > 7.00
CC[C@H](C)[C@H](NC(C)=O)C(=O)N[C@H]1CSSC[C@@H](C(=O)N[C@H](C(N)=O)[C@@H](C)O)NC(=O)[C@H](CCCNC(=N)N)NC(=O)[C@H](Cc2c[nH]cn2)NC(=O)[C@H](C)NC(=O)CNC(=O)[C@H](Cc2c[nH]c3ccccc23)NC(=O)[C@H](CC(=O)O)NC(=O)[C@H](CCC(N)=O)NC(=O)[C@H](Cc2c[nH]c3ccccc23)NC(=O)[C@H](C(C)C)NC1=O [Compound 4W9A, reference compound] | > 6.30

Same assay, conditions: human serum, sensitized sheep red blood cells; Table 4, valine 3 vs isoleucine 3 pairs; read-out: CP hemolysis IC50

SMILES | pIC50
CC[C@H](C)[C@H](NC(C)=O)C(=O)N[C@H]1CSSC[C@@H](C(=O)N[C@H](C(N)=O)[C@@H](C)O)NC(=O)[C@H](CCCNC(=N)N)NC(=O)[C@H](Cc2c[nH]cn2)NC(=O)[C@H](CCC(=O)O)NC(=O)CNC(=O)[C@H](Cc2c[nH]c3ccccc23)NC(=O)[C@H](CC(=O)O)NC(=O)[C@H](CCC(N)=O)NC(=O)[C@H](Cc2c[nH]c3ccccc23)NC(=O)[C@H](C(C)C)NC1=O [A, reference compound] (Ac-ICVWQDWGEHRCT-NH2; disulfide 2-12) | 6.46
